Data published in publication PMC5708526, “Targeting secondary protein complexes in drug discovery: studying the druggability and chemical biology of the HSP70/BAG1 complex” (Chemical Communications (Cambridge, England), 2017).
Read-outs that look alike come from different tables or passages of the source.

Columns and labels:
HSP72/BAG1 complex = molecular target: T1, HSP72/BAG1 complex (Homo sapiens, UniProt P0DMV8); assay: FP competition assay, displacement of bisaryl-ATTO-488 11 from secondary HSP72/BAG1 complex; assay type: binding; details: for change in affinity for HSP72/BAG1 complex compared to primary protein: 700 nM BAG1
T1 construct: purchased Enzo Life Sciences (BAG-1M only)
T1 sequence (P0DMV8 whole entry): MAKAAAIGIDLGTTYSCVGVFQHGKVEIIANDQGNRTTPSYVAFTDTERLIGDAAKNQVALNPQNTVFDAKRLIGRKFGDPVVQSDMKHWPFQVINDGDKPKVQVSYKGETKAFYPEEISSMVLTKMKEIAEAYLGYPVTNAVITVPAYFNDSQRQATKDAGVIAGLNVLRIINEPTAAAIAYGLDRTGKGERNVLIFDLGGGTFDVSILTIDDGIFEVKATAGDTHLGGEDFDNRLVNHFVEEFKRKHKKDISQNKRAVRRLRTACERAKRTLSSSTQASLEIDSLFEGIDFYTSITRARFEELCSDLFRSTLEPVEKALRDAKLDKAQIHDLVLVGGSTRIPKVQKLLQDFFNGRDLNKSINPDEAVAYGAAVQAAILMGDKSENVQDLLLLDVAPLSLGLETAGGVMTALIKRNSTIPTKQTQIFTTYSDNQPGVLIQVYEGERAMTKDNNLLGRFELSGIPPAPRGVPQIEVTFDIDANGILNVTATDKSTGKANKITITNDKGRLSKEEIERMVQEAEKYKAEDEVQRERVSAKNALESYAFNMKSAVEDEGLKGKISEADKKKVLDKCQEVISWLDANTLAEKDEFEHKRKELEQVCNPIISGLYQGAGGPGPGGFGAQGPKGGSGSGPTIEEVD
T1 sequence (Q99933 72-345 partner limits assumed): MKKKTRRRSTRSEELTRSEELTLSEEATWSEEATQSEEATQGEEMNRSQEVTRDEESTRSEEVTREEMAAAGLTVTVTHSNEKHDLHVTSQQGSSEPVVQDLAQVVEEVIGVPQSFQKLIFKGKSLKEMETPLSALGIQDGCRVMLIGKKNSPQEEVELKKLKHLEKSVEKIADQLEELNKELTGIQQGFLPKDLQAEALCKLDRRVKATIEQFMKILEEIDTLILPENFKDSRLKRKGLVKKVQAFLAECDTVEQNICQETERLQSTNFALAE
Procedure: (§1) To assess what effect the secondary HSP72/BAG1 complex had on the apparent affinity of the non-nucleotide bisaryl-ATTO-488 FP-probe 11, we carried out a similar BAG1 study. […] To confirm that the binding of BAG1 to HSP72 was not mutually exclusive, we screened the nucleotides ADP and ATP in a competition assay with bisaryl-ATTO-488 11 and HSP72 at a 50% bound fraction, with and without a saturating concentration of BAG1 (700 nM) (Fig. S7, ESI ^†). […]
(§2) Compound screen with and without BAG-1: Compounds (0.2 μL at 50 x screening concentration in DMSO) were dispensed using an ECHO 550 Liquid Handler (Labcyte Inc.). To the corresponding wells was added, 5 μL of probe molecule (20 nM in assay buffer), 2.5 μL of HSP72 (four times final concentration in assay buffer) and either 2.5 µL of BAG-1 (2.8 µM in 20 mM TRIS base pH 7.4, 100 mM NaCl, 1 mM DTT, 1% (v/v) glycerol) or 2.5 µL of BAG1 replacement buffer (20 mM TRIS base pH 7.4, 100 mM NaCl, 1 mM DTT, 1% (v/v) glycerol). The assay was performed in duplicate. Tracer controls (10 nM probe molecule only) and bound tracer controls (10 nM probe in the presence of appropriate protein concentration) were included on each assay plate.
IC50 determination was performed using non-linear least squares curve fitting (GraphPad Prism 6, log(inhibitor) vs. response— variable slope (four parameters)). […]
Fig. S8. Representative competitive binding curves for ADP (A), ATP (B), compound 12 (C) and compound 13 (D) in the presence and absence of BAG1. Competition experiments in the presence of BAG1 (red) were performed using 10 nM biaryl-ATTO-488, 700 nM BAG1 and 140 nM HSP70 to give a 50% bound fraction. Competition experiments in the absence of BAG1 (blue) were performed using 10 nM biaryl-ATTO-488 and 180 nM HSP70 to give a 50% bound fraction. IC50 determination was performed using non-linear regression analysis (log(inhibitor) vs. response - Variable slope (four parameters)), all data points were tested in duplicate and are represented as the arithmetic mean ± SEM.

HSP72 [1] = molecular target: T2, HSP72 (Homo sapiens, UniProt P0DMV8); assay: FP competition assay, displacement of bisaryl-ATTO-488 11 from primary HSP72 protein; assay type: binding
T2 construct: made in house
T2 sequence (P0DMV8 whole entry): as the sequence (P0DMV8 whole entry) above
Procedure: as §1
(§3) TRIS Tris(hydroxymethyl)aminomethane
(§4) General Information: Unless otherwise stated the aqueous assay buffer contained 50 mM TRIS base pH 7.4, 150 mM NaCl, 6 mM MgCl2, 1 mM DTT, 0.1% (wt/wt) CHAPS. The assay was conducted using 384 Plus F ProxiPlates (PerkinElmer) with a final assay volume of 10 μL. Plates were centrifuged at 1000 rpm for 1 minute prior to incubation and read using an 2103 Envision Multilable Plate Reader. Excitation and emission wavelengths used for green probes were 480 nm and 535 nm, respectively.
Fluorescence polarisation was measured in units of millipolarization (mP). All experiments were performed in triplicate, unless otherwise stated. Data were plotted and analysed using GraphPad Prism 6, graphical data represents the mean ± standard error of the mean for a single representative experiment. ATP-derived fluorescent probes (1.0 mM in aqueous) were purchased from Jena Bioscience. Human BAG-1M (10.9 μM in 20 mM TRIS base pH 7.4, 100 mM NaCl, 1 mM DTT, 1% (v/v) glycerol) was purchased from Enzo Life Sciences. […]
Compound IC50 determination: Compounds (0.2 μL at 50 x screening concentration in DMSO) were dispensed using an ECHO 550 Liquid Handler (Labcyte Inc.). To the corresponding wells was added, 5 μL of probe molecule (20 nM in assay buffer) and 5 μL of protein (two times their final concentration in assay buffer) to give a 50% bound fraction. Tracer controls (10 nM probe molecule only) and bound tracer controls (10 nM probe in the presence of appropriate protein concentration) were included on each assay plate. IC50 determination was performed using non-linear least squares curve fitting (GraphPad Prism 6, log(inhibitor) vs. response— variable slope (four parameters)). […]
as §2
IC50 determination was performed using non-linear least squares curve fitting (GraphPad Prism 6, log(inhibitor) vs. response— variable slope (four parameters)).
Fig. S1. Determination of assay binding window for bisaryl-ATTO-488 and ATP-ATTO-488. Polarisation values (mP) for 2-63 nM ATP-ATTO-488 (red) and bisaryl ATTO-488 (blue) in the presence (▼) and absence (▲) of 5 µM HSP72, ↔ represents the assay window at 10 nM probe concentration. All data points were tested in triplicate and are represented as the arithmetic mean ±

HSP72-NBD = molecular target: HSP72-NBD; set-up: method as in PMID 19256508; details: reported affinity for HSP72-NBD by surface-plasmon resonance; cited from earlier work
HSP72 [2] = molecular target: T2, HSP72; assay: FP assay binding window and Z' determination
Text: As a result, the assay was not statistically robust, so could not be used in competition experiments (Z′ = 0.36).[11],[20],[21] We hypothesised that the high lipophilicity of 10 (clog P = 6.9) was causing the small binding window, either due to aggregation, even at very low concentrations, or its large hydrate volume.[22] Because the lipophilicity of the specific-ligand portion of the probe was fixed by the need for high affinity to the HSP70 target, we focused on changes to the solvent exposed fluorophore. ATTO-488, a green-shifted fluorophore that contains two sulfonic acid groups, was selected as an alternative to fluorescein (see ESI ^†), as this reduced the clog P of the bisaryl probe 11 to –3.9.[21] The binding window of ATTO-488 bisaryl FP-probe 11 measured at a fixed and apparently saturating concentration of HSP72 (5 μM), was now greater than 150 mP (Z′ = 0.63, Fig. 3A and Fig. S1, ESI ^†). […]
as §3, §4
Fluorescence polarisation was measured in units of millipolarization (mP). All experiments were performed in triplicate, unless otherwise stated. Data were plotted and analysed using GraphPad Prism 6, graphical data represents the mean ± standard error of the mean for a single representative experiment. ATP-derived fluorescent probes (1.0 mM in aqueous) were purchased from Jena Bioscience. Human BAG-1M (10.9 μM in 20 mM TRIS base pH 7.4, 100 mM NaCl, 1 mM DTT, 1% (v/v) glycerol) was purchased from Enzo Life Sciences.
Determination of optimal probe concentration: To each well, 5 μL of HSP72 (10 µM in assay buffer) or 5 μL assay buffer and increasing concentrations of probe (5 μL, two-fold dilution series) were added. Fluorescence polarisation values for the tracer ± protein were plotted using GraphPad prism 6. […]
Z’ determination: To each well, 5 µL of probe (20 nM in assay buffer) and either 5 µL of HSP70 (in assay buffer) or 5 µL of assay buffer were added. Fluorescent polarisation values from 96 wells were used to calculate the mean and standard deviation for each data set. Z’-factors were calculated using the equation given below (sample refers to probe in the absence of protein and control refers to probe in the presence of protein). […]

[3] = 700 nM BAG1, 140 nM HSP72, 10 nM probe 11, 16 h incubation, geometric mean of at least 3 experiments, read-out: IC50 +BAG1
[4] = 180 nM HSP72, 10 nM probe 11, BAG1 buffer, 16 h incubation, geometric mean of at least 3 experiments, read-out: IC50 –BAG1

## Nc1ncnc2c1ncn2[C@@H]1O[C@H](COP(=O)(O)OP(=O)(O)O)[C@@H](O)[C@H]1O [ADP]
HSP72/BAG1 complex; [3]
  IC50: 2200 nM
HSP72/BAG1 complex; 700 nM BAG1, n = 3
  pIC50: 5.66 ± 0.04
HSP72/BAG1 complex; 700 nM BAG1 vs without BAG1
  decrease in affinity for the secondary complex compared to primary HSP72: 6.8 fold
HSP72 [1]; [4]
  IC50: 330 nM

## Nc1ncnc2c1ncn2[C@@H]1O[C@H](COP(=O)(O)OP(=O)(O)OP(=O)(O)O)[C@@H](O)[C@H]1O [ATP]
HSP72/BAG1 complex; [3]
  IC50: > 10000 nM
HSP72 [1]; [4]
  IC50: 650 nM

## Nc1ncnc2c1nc(NCc1ccc3ncccc3c1)n2[C@@H]1O[C@H](COCc2ccc(C(F)(F)F)cc2)[C@@H](O)[C@H]1O [compound 2]
HSP72-NBD
  Kd: 60 nM
HSP72 [1]; competition with FP-probe 11, HSP72, n = 3, read-out: pIC50 (converted)
  IC50: 135 nM
HSP72 [1]; competition with FP-probe 11, HSP72, read-out: IC50
  IC50: 137 nM

## O=C(NCCCCCCNc1ncnc2c1nc(NCc1ccc3ncccc3c1)n2[C@@H]1O[C@H](COCc2ccc(C(F)(F)F)cc2)[C@@H](O)[C@H]1O)c1ccc(C(=O)O)c(-c2c3ccc(=O)cc-3oc3cc(O)ccc23)c1 [compound 10]
HSP72 [2]; FP assay with HSP72
  Z': 0.36
HSP72 [2]; presence vs absence of 5 μM HSP72
  assay (binding) window: ~30 mP

## Nc1ncnc2c1nc(NCc1ccc3ncccc3c1)n2[C@@H]1O[C@H](CO)[C@@H](O)[C@H]1O [compound 12]
HSP72/BAG1 complex
  change in affinity for HSP72/BAG1 complex compared to primary protein: no significant change
HSP72/BAG1 complex; [3]
  IC50: 2000 nM
HSP72 [1]; [4]
  IC50: 2000 nM

## NC(=O)c1cn([C@@H]2O[C@H](CO)[C@@H](O)[C@H]2O)c2ncnc(N)c12 [compound 13, sangivamycin]
HSP72/BAG1 complex
  IC50: 1000 nM
  change in affinity for HSP72/BAG1 complex compared to primary protein: no significant change
HSP72 [1]
  IC50: 2400 nM
